Reference: patent publication US5276217A, “Cyclic anti-tumor promoter compounds, compositions and methods for production and use” (University of Hawaii, priority 1992, dated 1994)
Like-named read-outs stand apart in the source and are kept apart here.

Experiments:
tumor promotion = settings: prior art, in words, cited from earlier work
ras farnesyl transferase = target: T1, ras farnesyl transferase (Bos taurus, UniProt P29702+P49355); experiment: inhibition of the farnesylation of ras-p21 by ras farnesyl transferase (3H-farnesylpyrophosphate incorporation); assay type: biochemical, bovine
T1 construct: ras farnesyl transferase obtained from bovine brain; from tissue; host or cells: bovine brain
Method: This inhibitory activity is assayed using partially purified ras farnesyl transferase obtained from bovine brain by DEA gel filtration (J. Biol. Chem., 260, 15575, 1991) purified to display a single band in gel electrophoresis. […] This mixture is incubated at 37° C. for 20 minutes. The solutes are then precipitated with trichloroacetic acid (TCA) and the precipitate is filtered on a glass filter. The amount of farnesyl incorporated into the ras-p21 is then determined by liquid scintillation.

| Structure (SMILES) | anti-tumor promoter activity (tumor promotion) | anti-tumor promoter activity (tumor promotion; listed as sarcophytol A) | IC50 (ras farnesyl transferase; 37° C., 20 minutes, pH 7.5, 0.67 μM 3H-Farnesylpyrophosphate, 4 μg ras-p21) [µM] | inhibition of the farnesylation of ras-p21, in words (ras farnesyl transferase; conclusion from Example 7) |
| --- | --- | --- | --- | --- |
| C/C1=C\C=C(\C(C)C)[C@@H](O)[C@H](O)/C(C)=C/CC/C(C)=C/CC1 [Sarcophytol B] | have been shown to have anti-tumor promoter activity |  |  |  |
| CC1=CC=C(C(C)C)C(O)CC(C)=CCCC(C)=CCC1 (stereo not shown) [Sarcophytol A] | have been shown to have anti-tumor promoter activity | displays antitumor promoting properties | > 1000 | does not appear to be an effective inhibitor |
| CCCCC[C@H](O)CC(=O)CCc1ccc(O)c(OC)c1 [Gingerol, (S)-5-Hydroxy-1-(4-hydroxy-3-methoxyphenyl)-3-decanone] | reported to be an inhibitor of tumor promotion |  |  |  |
| C=C(C)C1CC=C(C)CC1 (stereo not shown) [Limonene, 1-methyl-4-(methylethenyl) cylcohexene] | has not been shown to have substantial anti-tumor promoter activity |  |  |  |
